Experimental data published in ChEMBL document CHEMBL1201862, “PubChem BioAssay data set” (2004).
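1) Cells in 96-well plates. 2) Compound, 48 h, 5 concentrations. 3) Linear interpolation between surrounding doses. 4) Unreached endpoint = highest concentration. GI50: concentration for 50% inhibition of growth.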 Activity calls are given as the source filed them. No stated cut-off is given here; in the data, active = GI50 up to about 1.1 µM and inactive = higher.

Experiments:
Assay in all cases: growth of human tumour cells (NCI), 48 h
786-0 = test system: 786-0
ACHN = test system: ACHN
CCRF-CEM = test system: CCRF-CEM
COLO 205 = test system: COLO 205
HL-60 = test system: HL-60
HOP-62 = test system: HOP-62
IGROV-1 = test system: IGROV-1
LOX IMVI = test system: LOX IMVI
MDA-MB-231 = test system: MDA-MB-231
NCI-H23 = test system: NCI-H23
NCI-H522 = test system: NCI-H522
PC-3 = test system: PC-3
RXF 393 = test system: RXF 393
SF-295 = test system: SF-295
SK-MEL-28 = test system: SK-MEL-28
SK-MEL-2 = test system: SK-MEL-2
SNB-75 = test system: SNB-75
T47D = test system: T47D
TK-10 = test system: TK-10
UACC-62 = test system: UACC-62

SMILES | GI50 (786-0) | GI50 (ACHN) | GI50 (CCRF-CEM) | GI50 (COLO 205) | GI50 (HL-60) | GI50 (HOP-62) | GI50 (IGROV-1) | GI50 (LOX IMVI) | GI50 (MDA-MB-231) | GI50 (NCI-H23) | GI50 (NCI-H522) | GI50 (PC-3) | GI50 (RXF 393) | GI50 (SF-295) | GI50 (SK-MEL-28) | GI50 (SK-MEL-2) | GI50 (SNB-75) | GI50 (T47D) | GI50 (TK-10) | GI50 (UACC-62)
Oc1ccccc1C(c1cc2c(cc1O)OCO2)N1CCOCC1 (configuration not stated) | 4.89 µM (inactive) | 17.5 µM (inactive) | 2.14 µM (inactive) | 18.7 µM (inactive) | 2.24 µM (inactive) | 38.8 µM (inactive) | 19.4 µM (inactive) | 17.1 µM (inactive) | 21 µM (inactive) | 23.6 µM (inactive) | 10.2 µM (inactive) | 16.3 µM (inactive) | 14.3 µM (inactive) | 20.6 µM (inactive) | 20.7 µM (inactive) | 17.8 µM (inactive) | 16.4 µM (inactive) | 16.7 µM (inactive) | > 10 µM (inactive) | 17 µM (inactive)
COc1cccc2cc(C(C)=O)c(=O)oc12 | > 100 µM (inactive) | > 100 µM (inactive) | > 100 µM (inactive) | > 100 µM (inactive) | > 100 µM (inactive) | > 100 µM (inactive) | > 100 µM (inactive) | > 100 µM (inactive) | > 100 µM (inactive) | > 100 µM (inactive) | > 100 µM (inactive) | > 100 µM (inactive) | > 100 µM (inactive) | > 100 µM (inactive) | > 100 µM (inactive) | > 100 µM (inactive) | > 100 µM (inactive) | 12.6 µM (inactive) | > 100 µM (inactive) | > 100 µM (inactive)
O=C1NC2c3c(I)sc(I)c3C(=O)C2O1 (configuration not stated) | 7.13 µM (inactive) | 3.05 µM (inactive) | 1.56 µM (inactive) | 2.67 µM (inactive) | 1.09 µM (active) | 14.1 µM (inactive) | 2.93 µM (inactive) | 2.16 µM (inactive) | 4.49 µM (inactive) | 5.27 µM (inactive) | 1.56 µM (inactive) | 6.9 µM (inactive) | 5.56 µM (inactive) | 15.8 µM (inactive) | 7.41 µM (inactive) | 10.4 µM (inactive) | 13.1 µM (inactive) | 15.9 µM (inactive) | 10.9 µM (inactive) | 8.99 µM (inactive)
CC1=CC2C3(C)C(C)(C(C)=CP3(=O)c3c(C(C)C)cc(C(C)C)cc3C(C)C)C1P2(=O)c1c(C(C)C)cc(C(C)C)cc1C(C)C (configuration not stated) | 2.12 µM (inactive) | 2.68 µM (inactive) | 2.04 µM (inactive) | 1.6 µM (inactive) | 1.09 µM (active) | 2.41 µM (inactive) | 1.98 µM (inactive) | 1.58 µM (inactive) | 1.77 µM (inactive) | 1.6 µM (inactive) | 2.4 µM (inactive) | 2.7 µM (inactive) | 3.2 µM (inactive) | 2.4 µM (inactive) | 2.58 µM (inactive) | 1.72 µM (inactive) | 3.05 µM (inactive) | 1.33 µM (inactive) | 2.55 µM (inactive) | 1.37 µM (inactive)
N#CC(=C1CCN(CCCC(=O)c2ccc(F)cc2)CC1)c1ccccc1 | > 100 µM (inactive) | > 100 µM (inactive) | > 100 µM (inactive) | > 100 µM (inactive) | > 100 µM (inactive) | – | > 100 µM (inactive) | > 100 µM (inactive) | > 100 µM (inactive) | > 100 µM (inactive) | 21.3 µM (inactive) | > 100 µM (inactive) | > 100 µM (inactive) | > 100 µM (inactive) | > 100 µM (inactive) | > 100 µM (inactive) | > 100 µM (inactive) | > 100 µM (inactive) | > 100 µM (inactive) | > 100 µM (inactive)
O=C1C=CC(=O)c2ccc(=O)ccc21 | 17.5 µM (inactive) | 9.68 µM (inactive) | 0.802 µM (active) | 5.01 µM (inactive) | 2.1 µM (inactive) | 25.9 µM (inactive) | 18.8 µM (inactive) | 4.7 µM (inactive) | 20.5 µM (inactive) | 19.1 µM (inactive) | 2.09 µM (inactive) | 17.8 µM (inactive) | 6.31 µM (inactive) | 13.2 µM (inactive) | 21.4 µM (inactive) | 18.1 µM (inactive) | 19.9 µM (inactive) | 2.34 µM (inactive) | 17.6 µM (inactive) | 13.7 µM (inactive)
COc1cc(O)c2c(c1)OCC1(Cc3cc(OC)c(OC)cc31)C2=O (configuration not stated) | > 100 µM (inactive) | > 100 µM (inactive) | > 100 µM (inactive) | 90.2 µM (inactive) | > 100 µM (inactive) | > 100 µM (inactive) | > 100 µM (inactive) | 89.3 µM (inactive) | 83 µM (inactive) | 72.9 µM (inactive) | 84.9 µM (inactive) | > 100 µM (inactive) | > 100 µM (inactive) | 30.5 µM (inactive) | > 100 µM (inactive) | > 100 µM (inactive) | 78.3 µM (inactive) | 11.9 µM (inactive) | > 100 µM (inactive) | 63.2 µM (inactive)
O=C(CC(=O)N(C(=O)c1ccccc1)c1ccc(Cl)cc1)N/N=C\c1ccccc1O | 40 µM (inactive) | 77.3 µM (inactive) | 2.86 µM (inactive) | 85.5 µM (inactive) | > 100 µM (inactive) | 31.8 µM (inactive) | 25.4 µM (inactive) | 58.1 µM (inactive) | 12.9 µM (inactive) | 43.4 µM (inactive) | > 100 µM (inactive) | 39.3 µM (inactive) | 36.8 µM (inactive) | 25.9 µM (inactive) | > 100 µM (inactive) | 45.1 µM (inactive) | 22.9 µM (inactive) | 49.7 µM (inactive) | 32.3 µM (inactive) | –
CC1OC(OC2C(O[C@H]3CC[C@@H]4C(=CC[C@@H]5[C@@]4(C)C(=O)C[C@]4(C)[C@@H]([C@H](C)CC[C@@H](O)C(C)(C)O)CC[C@@]54C)C3(C)C)OC(CO)C(O)C2O)C(O)C(O)C1O (some centres not stated) | > 100 µM (inactive) | > 100 µM (inactive) | 79.3 µM (inactive) | > 100 µM (inactive) | > 100 µM (inactive) | > 100 µM (inactive) | 75.5 µM (inactive) | > 100 µM (inactive) | > 100 µM (inactive) | > 100 µM (inactive) | > 100 µM (inactive) | > 100 µM (inactive) | > 100 µM (inactive) | > 100 µM (inactive) | > 100 µM (inactive) | > 100 µM (inactive) | > 100 µM (inactive) | > 100 µM (inactive) | > 100 µM (inactive) | > 100 µM (inactive)
COc1cc(CCCOC(=O)/C=C/c2ccc(O)c(O)c2)cc(O)c1O | 49 µM (inactive) | > 100 µM (inactive) | 30.8 µM (inactive) | 94.6 µM (inactive) | 25.5 µM (inactive) | > 100 µM (inactive) | 80.2 µM (inactive) | 17.6 µM (inactive) | 28.8 µM (inactive) | 56.4 µM (inactive) | 15 µM (inactive) | 32.4 µM (inactive) | 73.6 µM (inactive) | 35.1 µM (inactive) | 58.3 µM (inactive) | 83.2 µM (inactive) | 35.2 µM (inactive) | 27.9 µM (inactive) | > 100 µM (inactive) | 27.9 µM (inactive)
O=C1CC(c2n[nH]c3ccccc23)C(=O)N1c1ccccc1 (configuration not stated) | > 100 µM (inactive) | > 100 µM (inactive) | 29.2 µM (inactive) | > 93.8 µM (inactive) | 25.6 µM (inactive) | > 100 µM (inactive) | > 100 µM (inactive) | > 100 µM (inactive) | > 100 µM (inactive) | > 100 µM (inactive) | > 100 µM (inactive) | > 100 µM (inactive) | > 100 µM (inactive) | > 100 µM (inactive) | > 100 µM (inactive) | > 100 µM (inactive) | > 100 µM (inactive) | > 100 µM (inactive) | > 100 µM (inactive) | > 100 µM (inactive)
CCNc1ncnc2c1nnn2CC | > 100 µM (inactive) | > 100 µM (inactive) | > 100 µM (inactive) | > 100 µM (inactive) | > 100 µM (inactive) | > 100 µM (inactive) | > 100 µM (inactive) | > 100 µM (inactive) | > 100 µM (inactive) | > 100 µM (inactive) | > 100 µM (inactive) | > 100 µM (inactive) | > 100 µM (inactive) | 79.6 µM (inactive) | > 100 µM (inactive) | > 100 µM (inactive) | 77.1 µM (inactive) | > 100 µM (inactive) | > 100 µM (inactive) | > 100 µM (inactive)
OCCN1CN(c2nc(N3CN(CCO)C3)nc(N3CN(CCO)C3)n2)C1 | 23.8 µM (inactive) | 31.6 µM (inactive) | 20.5 µM (inactive) | 28 µM (inactive) | 16 µM (inactive) | 19.3 µM (inactive) | 30.1 µM (inactive) | 14.8 µM (inactive) | 19.8 µM (inactive) | 22.2 µM (inactive) | 13.4 µM (inactive) | 22.1 µM (inactive) | 22.7 µM (inactive) | – | 17.7 µM (inactive) | 18.7 µM (inactive) | 23.1 µM (inactive) | 25.8 µM (inactive) | 30.6 µM (inactive) | 14.5 µM (inactive)
COc1cc2c(cc1OC)C(CCN)=NCC2 | 5.08 µM (inactive) | 16.6 µM (inactive) | 2.19 µM (inactive) | 14.3 µM (inactive) | 0.839 µM (active) | 21.1 µM (inactive) | 22.6 µM (inactive) | 18.8 µM (inactive) | 16.6 µM (inactive) | 13.1 µM (inactive) | 3.82 µM (inactive) | 16 µM (inactive) | 15.7 µM (inactive) | > 100 µM (inactive) | 18.4 µM (inactive) | 17.4 µM (inactive) | 18.5 µM (inactive) | 8.32 µM (inactive) | 10.2 µM (inactive) | 18.2 µM (inactive)
